Structures are written as SMILES. Like-named read-outs stand apart in the source and are kept apart here.

Here are results for 4 compounds from patent US7101878B1 (Agouron Pharmaceuticals, Inc., priority 1998, dated 2006).

The target in one data set is T1, human GnRH receptor (Homo sapiens, UniProt P30968).
T1 construct: expressed in transfected cells; host or cells: HEK 293 (hGnRH-R/293, from Dr. Stuart Sealfon)
T1 sequence (P30968 1-328): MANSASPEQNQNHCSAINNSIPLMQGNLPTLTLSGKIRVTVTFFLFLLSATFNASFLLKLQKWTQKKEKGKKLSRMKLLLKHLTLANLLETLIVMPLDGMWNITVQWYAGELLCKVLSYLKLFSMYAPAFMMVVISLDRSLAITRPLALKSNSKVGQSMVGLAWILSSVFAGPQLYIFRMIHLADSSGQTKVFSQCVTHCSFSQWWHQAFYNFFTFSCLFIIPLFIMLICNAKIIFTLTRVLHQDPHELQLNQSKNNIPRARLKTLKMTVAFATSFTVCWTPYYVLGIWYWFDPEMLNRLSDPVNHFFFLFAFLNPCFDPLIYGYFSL
The data set can be described thus: Radioligand binding, 125I-GnRH-A displacement, membranes of HEK 293 cells with human GnRH receptor. In short, it runs like this:
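After filtration and PBS washes, bound radioactivity was counted by scintillation and IC50 derived. Identical conditions applied for non-human receptors.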

For data set [1], the target named is T2, rat GnRH receptor (Rattus norvegicus, UniProt P30969).
T2 sequence (P30969 1-327): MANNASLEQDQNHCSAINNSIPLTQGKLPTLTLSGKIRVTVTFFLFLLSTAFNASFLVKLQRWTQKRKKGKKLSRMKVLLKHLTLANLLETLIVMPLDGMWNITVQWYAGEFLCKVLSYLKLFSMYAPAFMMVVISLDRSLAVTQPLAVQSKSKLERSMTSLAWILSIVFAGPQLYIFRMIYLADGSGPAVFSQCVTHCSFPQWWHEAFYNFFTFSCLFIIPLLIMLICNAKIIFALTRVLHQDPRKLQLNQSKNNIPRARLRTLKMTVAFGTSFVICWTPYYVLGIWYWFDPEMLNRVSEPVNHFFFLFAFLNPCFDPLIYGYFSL
The data set can be described thus: Radioligand binding, 125I-GnRH-A, rat pituitary membranes. The arrangement: membranes were prepared from rat pituitary; from tissue; host or cells: rat pituitary. The following applies: read-out: rGnRH IC50. In short, it runs like this:
(§1)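 Bound label captured on 0.1% polyethyleneimine-treated GF/C filters, washed three times with PBS, counted. IC50 derived; identical set-up for every species.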

In a further data set the target is T3, mouse GnRH receptor (Mus musculus, UniProt Q01776).
T3 construct: expressed in transfected cells; host or cells: 293 cells
T3 sequence (Q01776 1-327): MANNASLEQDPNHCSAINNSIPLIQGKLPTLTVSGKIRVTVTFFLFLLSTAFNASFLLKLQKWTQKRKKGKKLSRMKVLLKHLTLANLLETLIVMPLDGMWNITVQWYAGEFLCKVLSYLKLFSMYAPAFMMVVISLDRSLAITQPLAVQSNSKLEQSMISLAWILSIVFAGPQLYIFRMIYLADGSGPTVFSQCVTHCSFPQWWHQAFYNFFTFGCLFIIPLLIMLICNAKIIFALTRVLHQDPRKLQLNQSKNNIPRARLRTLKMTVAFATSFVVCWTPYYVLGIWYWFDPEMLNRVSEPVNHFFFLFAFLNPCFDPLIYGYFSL
The data set can be described thus: Radioligand binding, 125I-GnRH-A, 293 cells expressing mouse GnRH receptors. In short, it runs like this:
as §1

Data set [2] in a line: Metabolism rate, pmol/min/mg at 1 μM, human. The conditions noted are these: 1 μM compound. The data set is classed as in vitro ADME.
The next data set concerns the target T4, bovine GnRH receptor (Bos taurus, UniProt P32236).
T4 construct: membranes were prepared from bovine pituitary; from tissue; host or cells: bovine pituitary
T4 sequence (P32236 1-328): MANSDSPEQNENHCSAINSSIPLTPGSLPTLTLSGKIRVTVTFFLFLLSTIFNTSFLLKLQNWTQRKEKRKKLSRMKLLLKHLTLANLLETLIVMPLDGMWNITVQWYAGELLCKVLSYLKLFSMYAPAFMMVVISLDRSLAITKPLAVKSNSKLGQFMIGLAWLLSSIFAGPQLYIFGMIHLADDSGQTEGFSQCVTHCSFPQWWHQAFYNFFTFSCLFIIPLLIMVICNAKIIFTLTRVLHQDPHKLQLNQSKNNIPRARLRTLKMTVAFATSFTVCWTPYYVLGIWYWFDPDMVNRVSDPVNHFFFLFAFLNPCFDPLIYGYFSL
The experiment in a line: Radioligand binding, 125I-GnRH-A, bovine pituitary membranes. In short, it runs like this:
as §1

The nature of data set [3]: Metabolism rate, pmol/min/mg at 1 μM, rat male. In kind it is in vitro ADME. The conditions noted are these: 1 μM compound.
A short description of data set [4]: Pharmacokinetic studies / bioavailability in rats. The conditions noted are these: for half-life / Cmax / Tmax: rat, plasma; for Cmax / Tmax: po. The data set is classed as in vivo, rat.
The target in the next data set is T5, hGnRH receptor (Homo sapiens, UniProt P30968).
T5 construct: expressed in transfected cells; host or cells: HEK 293 (hGnRH-R/293, from Dr. Stuart Sealfon)
T5 sequence (P30968 1-328): T1 sequence (P30968 1-328)
The experiment in a line: Total inositol phosphates measurement, 293 cells containing the hGnRH receptor. In kind it is cell-based. The conditions noted are these: no species or readout annotated. As for the experimental part:
To assess the activity of the compounds as agonists or antagonists, an assay measuring accumulation of total inositol phosphates was employed. 293 cells containing the hGnRH receptor were plated onto 24-well plates (approximately 200,000 cells/well) using DMEM media. […] The medium was aspirated and the cells rinsed with serum-free DMEM. The medium was aspirated and the cells were then treated with test compounds or vehicle for 30 minutes at 37° C. […] The media was replaced with ice-cold 10 mM formic acid, which stopped the reaction and also served to extract cellular lipids. Inositol phosphates were separated by ion-exchange chromatography on Dowex columns, which were washed with 2.5 mL of 10 mM myoinositol and 10 mM formic acid. The columns were then washed with 5 mL of 60 mM sodium formate and […], and total inositol phosphates were eluted with 5 mL 1M ammonium formate, 0.1 M formic acid. The column eluates were added to liquid scintillation vials containing 15 ml of scintillation cocktail and were counted by liquid scintillation counting.
(§2) This cell line was provided by Dr. Stuart Sealfon, Mount Sinai Medical School New York, N.Y. These cells were grown in DMEM supplemented with 0.2 g/L G418 100 U/ml penicillin/streptomycin and 10% FBS. Both GGH3 and hGnRH-R/293 cells were utilized for both for both total inositol phosphate measurement and for microphysiometry assessment of compound efficacy.

The target in a further data set is D2 Dopamine (Homo sapiens, UniProt P14416). The data set can be described thus: Selectivity: D2 Dopamine.
The target in a further data set is 5-HT7 (Homo sapiens, UniProt P34969). The experiment in a line: Selectivity: 5-HT7.
The nature of data set [5]: Metabolism rate, pmol/min/mg at 1 μM, dog. In kind it is in vitro ADME. The conditions noted are these: 1 μM compound.
The nature of data set [6]: Metabolism rate, pmol/min/mg at 1 μM, rat female. In kind it is in vitro ADME. The following applies: 1 μM compound.
Data set [7] is described as follows: Metabolism rate, pmol/min/mg at 1 μM, monkey. In kind it is in vitro ADME. The following applies: 1 μM compound.
Data set [8] deals with T2, rat GnRH receptor. The data set can be described thus: Microphysiometry, extracellular acidification rate, GGH3 cells. The data set is classed as cell-based. The conditions noted are these: agonist alone. As for the experimental part:
These cells have been extensively characterized previously (Kaiser et al., 1997). These cells were grown in low glucose Dulbecco's modified Eagle's medium (DMEM) containing: 100U/mL penicillin/streptomycin, 0.6 g/L G418 and 10% beat-inactivated fetal bovine serum
as §2
The Cytosensor®Microphysiometer (Molecular Devices, Sunnyvale, Calif.) is a real-time, noninvasive, nonradioactive semiconductor-based system for monitoring the cellular responses to various stimuli. It is based on a pH-sensitive silicon sensor, the light-addressable potentiometric sensor which forms part of a microvolume flow chamber in which cultured cells are immobilized (Pitchford et al., 1995; Parce et al., 1989; Owicki, et al. 1994).
GGH3 cells were seeded in low-buffered minimal essential media (MEM, Sigma) containing 25 mM NaCl and 0.1% BSA at a density of 500,000 cells/capsule onto the polycarbonate membrane (3 μm porosity) of cell capsule cups (Molecular Devices, Sunnyvale, Calif.). Capsule cups were transferred to sensor chambers where cells were held in close apposition to a silicon sensor within a sensor chamber, which measures small changes in pH in the microvolume of the sensor chamber. Low-buffered medium was pumped continuously across the cells at a rate of approximately 100 μl/min from one of two fluid reservoirs. A selection valve determined which reservoir from which fluid was perifused onto the cells.
The Cytosensor®Microphysiometer generates a voltage signal, which is a linear function of pH, every second. In order to measure acidification rates, flow to the sensor chamber containing the cells was periodically interrupted, allowing for excreted acidic metabolites to build up in the extracellular fluid of the cells. In these experiments, cells were maintained at 37° C. on a two minute flow cycle with cells being perfused with media for 80 seconds followed by 40 seconds in which the flow of media was stopped. During this 40 second interval, acidification rates were measured for a 30 sec interval. In this fashion, a single acidification rate was calculated every two min. The Cytosensor®Microphysiometer device contains eight such sensor units, allowing for eight simultaneous experiments to be performed. Each unit was individually programmed utilizing a computer linked to the system.
GGH3 cells were initially equilibrated in the low-buffered MEM media for a period of 30-60 min in which basal acidification rates (measured as μV/sec), in the absence of any stimuli, were monitored. When the basal rate of acidification changed by less than ten percent over a period of twenty minutes, experiments were initiated. Time course experiments were performed to determine the optimal time for agonist exposure prior to acidification rate measurement and the duration of exposure needed to obtain peak acidification responses to various agonists. From these time course experiments, it was determined that cells should be exposed to GnRH peptide agonists at least one minute prior to collection of acidification rate data. Peak acidification rates usually occurred in the first two-minute exposure cycle. In order to capture the peak response to GnRH, cells were exposed to the agonist for a total of four minutes. […] All compounds were tested in a final concentration of 1% DMSO in low-buffered MEM media described above.

The mark [9] stands for this setting: female, 10 mg/kg, rat female, p.o. 10 mg/kg, 5 mg/ml solution in 10% DMSO 10% cremophor 80% saline.
Setting [10] is: male, 20 mg/kg, rat male, p.o. 20 mg/kg, vehicle per footnote (DMSO/cremophor/saline).

Chain of D2 Dopamine (P14416 whole entry): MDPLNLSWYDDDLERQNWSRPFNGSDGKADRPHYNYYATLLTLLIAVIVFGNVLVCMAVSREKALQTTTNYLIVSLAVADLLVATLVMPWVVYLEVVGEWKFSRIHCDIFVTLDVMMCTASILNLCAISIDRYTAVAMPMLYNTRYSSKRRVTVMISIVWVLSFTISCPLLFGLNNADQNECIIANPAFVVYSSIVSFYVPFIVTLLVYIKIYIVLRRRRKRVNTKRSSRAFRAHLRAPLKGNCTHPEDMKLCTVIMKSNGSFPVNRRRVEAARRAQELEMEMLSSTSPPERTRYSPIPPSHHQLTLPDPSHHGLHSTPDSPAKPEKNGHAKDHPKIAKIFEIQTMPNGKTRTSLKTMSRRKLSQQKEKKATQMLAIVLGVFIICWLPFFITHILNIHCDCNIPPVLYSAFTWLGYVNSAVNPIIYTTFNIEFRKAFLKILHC
Chain of 5-HT7 (P34969 whole entry, species assumed): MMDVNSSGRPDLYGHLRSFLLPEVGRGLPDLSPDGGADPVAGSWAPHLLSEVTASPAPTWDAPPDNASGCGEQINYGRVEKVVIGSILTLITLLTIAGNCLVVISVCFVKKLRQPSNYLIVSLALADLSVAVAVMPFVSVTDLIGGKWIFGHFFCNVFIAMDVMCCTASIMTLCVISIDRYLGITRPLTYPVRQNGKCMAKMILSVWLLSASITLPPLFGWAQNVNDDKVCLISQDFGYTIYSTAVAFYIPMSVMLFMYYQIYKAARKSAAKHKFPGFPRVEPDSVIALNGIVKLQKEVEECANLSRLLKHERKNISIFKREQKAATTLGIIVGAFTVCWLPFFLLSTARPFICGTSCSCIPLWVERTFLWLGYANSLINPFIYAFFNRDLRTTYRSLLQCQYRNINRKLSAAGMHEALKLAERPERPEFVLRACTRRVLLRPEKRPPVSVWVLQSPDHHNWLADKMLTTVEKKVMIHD

Regarding `Cc1cc2c(cc1Cc1ccc(C(=O)NC[C@H]3CC[C@@H](CNC(=N)N)CC3)o1)C(C)(C)CCC2(C)C` [Compound 23], the IC50 on human GnRH receptor (read-out: hGnRH IC50) was found to be 220 nM; at human GnRH receptor (second value marked * (mostly in parentheses), asterisk not explained, read-out: hGnRH IC50, value marked *), 40 nM; at rat GnRH receptor [1], 730 nM; at mouse GnRH receptor (read-out: mGnRH IC50), 2100 nM; on bovine GnRH receptor (read-out: bGnRH IC50), 2830 nM. Also, in data set [2], the “Human pmol/min/mg 1 μM” value stood at 263 pmol/min/mg. Moreover, in data set [3], the “Rat male pmol/min/mg 1 μM” value worked out at 141 pmol/min/mg. The compound further came in with a half-life in [4] (male, iv, 10 mg/kg, rat male) of 0.8 h. For the same compound, the GnRH functional result at hGnRH receptor is “Antag- onist”.
Turning to `COc1cccc(OC)c1NC(=O)c1ccc(Cc2c(C)cc(C)c(Br)c2C)o1` [Compound 140], the IC50 on human GnRH receptor (read-out: hGnRH IC50) is 110 nM; on rat GnRH receptor [1], 530 nM; at mouse GnRH receptor (read-out: mGnRH IC50), 320 nM. Also, the Ki on D2 Dopamine was 2300 nM; on 5-HT7 it was above 4400 nM. Further, the “Human pmol/min/mg 1 μM” value in data set [2] was found to be 497 pmol/min/mg. In addition, in data set [3], the “Rat male pmol/min/mg 1 μM” value came out at 2521 pmol/min/mg. In data set [4] (setting [9]), this compound came in with a Cmax of 440 nM. In [4] (setting [9]), the Tmax came to 1 h. The half-life in [4] (female, rat female) is 4.6 h. Further, the Fp.o. in data set [4] (rat female, 5 mg/ml solution in 10% DMSO 10% cremophor 80% saline) is 59% (10 mg/kg)^10.
On to `Cc1cc2c(cc1Cc1ccc(C(=O)NCc3cccc(CNc4nccc(NC[C@@H]5CCCO5)n4)c3)o1)C(C)(C)CCC2(C)C` [Compound 148], for which the IC50 at human GnRH receptor (read-out: hGnRH IC50) came to 12 nM; on rat GnRH receptor [1], 1.6 nM; on mouse GnRH receptor (read-out: mGnRH IC50), 1.3 nM. Further, in [2], the “Human pmol/min/mg 1 μM” value was 248 pmol/min/mg. The “Dog pmol/min/mg 1 μM” value in data set [5] was found to be 1960 pmol/min/mg. Further, the “Rat male pmol/min/mg 1 μM” value in data set [3] came to 1414 pmol/min/mg. For the same compound, the half-life in [4] (male, iv, 10 mg/kg, rat male) was 1.1 h. Further, in data set [4] (setting [10]), the concentration peaked (Cmax) at 30 nM. Moreover, in data set [4] (setting [10]), the time of peak concentration (Tmax) was determined as 2 h. In addition, the Fp.o. in data set [4] (rat male, p.o. 20 mg/kg, vehicle per footnote (DMSO/cremophor/saline)) is reported as 3% (20 mg/kg)^1. Moreover, the “Rat female pmol/min/mg 1 μM” value in [6] is 133 pmol/min/mg. In addition, the “Monkey pmol/min/mg 1 μM” value in data set [7] is on record as 5019 pmol/min/mg.
Take `CC(C)C[C@H](NC(=O)CNC(=O)[C@H](Cc1ccc(O)cc1)NC(=O)[C@H](CO)NC(=O)[C@H](Cc1c[nH]c2ccccc12)NC(=O)[C@H](Cc1c[nH]cn1)NC(=O)[C@@H]1CCC(=O)N1)C(=O)N[C@@H](CCCNC(=N)N)C(=O)N1CCC[C@H]1C(=O)NCC(N)=O` [GnRH, reference compound]: the IC50 came out at 11 ± 2 nM at mouse GnRH receptor (Mouse IC50, means ± SE of at least three experiments performed in duplicate) and 13 ± 2 nM at bovine GnRH receptor (means ± SE of at least three experiments performed in duplicate, read-out: Bovine IC50). In addition, on rat GnRH receptor [8], the “extracellular acidification rate of GGH3 cells” value was “dose-dependent increase in the extracellular acidification rate”.
